According to article PMC6025191, “Heteronemin, a Marine Sesterterpenoid-Type Metabolite, Induces Apoptosis in Prostate LNcap Cells via Oxidative and ER Stress Combined with the Inhibition of Topoisomerase II and Hsp90” (Marine Drugs, 2018):

Target: T1, topoisomerase IIα (Homo sapiens, UniProt P11388)
T1 construct: gene TOP2A
Experiment: cell-free DNA cleavage assay with pHOT1 plasmid ([…], induction of linear DNA)
Type: biochemical

T1 sequence (P11388 whole entry): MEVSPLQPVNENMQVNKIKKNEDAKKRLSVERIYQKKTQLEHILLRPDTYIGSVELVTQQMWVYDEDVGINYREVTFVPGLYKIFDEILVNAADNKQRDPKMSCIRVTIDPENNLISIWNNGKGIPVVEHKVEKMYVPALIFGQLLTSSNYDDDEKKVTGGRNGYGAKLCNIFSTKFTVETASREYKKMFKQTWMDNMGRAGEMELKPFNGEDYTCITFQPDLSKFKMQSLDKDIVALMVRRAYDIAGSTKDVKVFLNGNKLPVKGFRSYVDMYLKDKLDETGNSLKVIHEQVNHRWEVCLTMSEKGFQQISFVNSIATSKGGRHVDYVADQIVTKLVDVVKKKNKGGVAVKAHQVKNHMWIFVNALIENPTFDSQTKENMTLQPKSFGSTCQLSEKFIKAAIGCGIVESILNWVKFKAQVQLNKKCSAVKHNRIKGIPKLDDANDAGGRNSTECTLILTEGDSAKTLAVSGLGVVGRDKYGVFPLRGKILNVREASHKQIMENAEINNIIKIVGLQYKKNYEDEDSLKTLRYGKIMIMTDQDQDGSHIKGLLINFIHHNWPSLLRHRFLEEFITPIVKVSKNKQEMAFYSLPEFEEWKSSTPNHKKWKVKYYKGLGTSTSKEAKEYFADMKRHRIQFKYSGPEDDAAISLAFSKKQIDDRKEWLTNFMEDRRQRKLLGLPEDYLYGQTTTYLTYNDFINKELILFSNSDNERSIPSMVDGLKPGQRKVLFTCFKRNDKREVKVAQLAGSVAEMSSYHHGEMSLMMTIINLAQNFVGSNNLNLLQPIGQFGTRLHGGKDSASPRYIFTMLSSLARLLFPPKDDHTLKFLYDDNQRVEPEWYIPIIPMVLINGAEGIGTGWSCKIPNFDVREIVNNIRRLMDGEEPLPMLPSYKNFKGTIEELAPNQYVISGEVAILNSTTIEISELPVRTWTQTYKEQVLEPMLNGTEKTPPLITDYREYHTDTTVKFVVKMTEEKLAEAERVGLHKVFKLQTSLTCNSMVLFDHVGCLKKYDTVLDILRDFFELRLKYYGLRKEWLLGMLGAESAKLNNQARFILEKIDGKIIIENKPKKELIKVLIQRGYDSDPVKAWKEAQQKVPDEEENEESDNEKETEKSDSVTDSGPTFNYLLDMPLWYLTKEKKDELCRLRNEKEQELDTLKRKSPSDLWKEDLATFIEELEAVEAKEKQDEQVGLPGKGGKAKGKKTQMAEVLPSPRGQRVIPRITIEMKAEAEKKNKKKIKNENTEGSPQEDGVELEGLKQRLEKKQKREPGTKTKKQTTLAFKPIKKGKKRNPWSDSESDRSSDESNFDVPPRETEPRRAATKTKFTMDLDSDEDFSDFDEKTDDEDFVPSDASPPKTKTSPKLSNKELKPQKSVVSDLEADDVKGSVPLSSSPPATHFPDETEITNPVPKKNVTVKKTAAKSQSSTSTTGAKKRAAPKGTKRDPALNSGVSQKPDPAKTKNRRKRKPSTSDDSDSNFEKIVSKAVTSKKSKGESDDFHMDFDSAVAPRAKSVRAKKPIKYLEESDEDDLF

## COc1cc([C@@H]2c3cc4c(cc3[C@@H](O[C@@H]3O[C@@H]5CO[C@@H](C)O[C@H]5[C@H](O)[C@H]3O)[C@H]3COC(=O)[C@H]23)OCO4)cc(OC)c1O [etoposide]
  cell-free DNA cleavage assay with pHOT1 plasmid (500 μM, induction of linear DNA): A linear DNA strand was observed upon treating the supercoiled pHOT1 plasmid DNA with etoposide, a standard topo II poison
